Laboratory results taken from patent US4007201A, “Novel pyrazole derivatives” (Kyorin Pharmaceutical Co. Ltd., priority 1975, dated 1977).
Read-outs that look alike come from different tables or passages of the source.

Experiments:
Assay type in all cases: in vivo, male Sprague Dawley rats
[1] = system: blood glucose level in non-diabetic rats; test: Hypoglycemic activity in non-diabetic rats (screening test); details: Rattus norvegicus, 100 mg/kg oral, fasted, glucose s.c.
Procedure: (§1) These new compounds of the present invention are very useful as anti-diabetic agents, which is supported from the following pharmacological studies. The animals used for the pharmacological studies were male Sprague Dawley rats exept otherwise noted. 1. Hypoglycemic activity in non-diabetic rats (screening test)
The rats were fasted for 16 - 18 hours prior to the experiment and those weighing 140 - 160g were used. Glucose solution (100 mg/0.5ml/150g body weight) was subcutaneously injected on the fasted rats. Each of the present compounds was suspended in 1% carboxymethyl cellulose (CMC), and about 0.5 ml of the suspension (corresponding to 100 mg/kg of the compound per body weight) was orally administered. Blood samples were taken from the tail vein of the rats at 2 and 5 hours after the administration, and the blood glucose level in each sample (0.1 ml) was determined by the micro method of Momose as described in SOGO-RINSHO 11, 120 (1962).
3,5-Dinitrophthalic acid is reduced with glucose to stable orange-red azo-compound via red hydroxyaminophthalic acid in basic media.
To 0.5ml of water was added 0.1ml of blood and shaken to hemolyze, and to which was added 1.7ml of 0.06N barium hydroxide solution. To the resulting dark-brown solution was added 1.7ml of zinc sulfate solution (1g/dl), and which was shaken thoroughly and allowed to stand for 2-3min followed by centrifugation.
One ml of 3,5-dinitrophthalic acid solution (1.5g of monopyridinium-3,5-dinitrophthalate in 500ml of water) and 1 ml of sodium carbonatesodium hyposulfite solution (125-25g/500ml) were added to 2ml of spernatant solution. The solution was heated at 100° C for 10 min. After cooling with running water for 3 min, water was added to make 20ml.
To 2ml of water were added 3,5-dinitrophthalic acid solution and an alkaline solution, and the solution was treated as mentioned above.
As the absorbance of reference at 450nm was adjusted to 0, the absorbance of sample corresponded to blood glucose level.

[2] = system: blood glucose level in alloxan diabetic rats; test: Hypoglycemic effect in alloxan diabetic rats; details: for Hypoglycemic effect in alloxan diabetic rats (in words): oral
Procedure: as §1
Alloxan diabetic rats were obtained as follows. Namely, 2.5% fresh solution of alloxan (50mg/kg) was injected into the tail vein of male rats, and the rats were daily injected with insulin (1-4 units/day) from the 7th day after the administration of alloxan. The alloxan diabetic rats which were survived for more than 2 months with daily injection of insulin were used. The alloxan diabetic rats were fasted for 24 hours after the last treatment with insulin, and then the compound of the present invention was orally administered. The blood glucose levels were determined by the micro method of Momose before and 2, 4 and 6 hours after the administration.

[3] = system: blood glucose level in adrenalectomized rats; test: Hypoglycemic effect in adrenalectomized rats; details: for Reduction % from control / Blood glucose: 2 hours; for Blood glucose: ± SE
Text: as §1
The rats were adrenalectomized (both left and right adrenal glands) and were bred for 6-7 days by using 1% saline solution as for drinking water. The adrenalectomized rats were then fasted for 16-18 hours prior to the experiment. Glucose loading (100 mg/150g body weight) was performed by a subcutaneous administration of glucose solution on the back of the rats. Immediately after the glucose loading, the compound 4 suspended in 1% CMC was orally administered. Two hours after the oral administration, blood was obtained from the vena cava candalis of the rats under anesthesia with sodium pentobarbital. Blood glucose level was determined by the method of Momose.

[4] = system: blood glucose level in non-diabetic rats; test: Blood glucose level in non-diabetic rats at 90 minutes; details: 100 mg/kg oral
Procedure: as §1
(§2) The rats were fasted for 16-18 hours, and those weighing 130-160g were used. The compound 4 suspended in 1% CMC was orally administered to the fasted rats, and at 90 minutes after administration blood was drawn from the […] vena cava under anesthesia with sodium pentobarbital. The blood glucose level was determined by the method of Momose, and the serum FFA level was determined by the method of Itaya and Ui as described in J. Lipid Res., 6, 16 (1965), respectively.

[5] = system: serum FFA level in non-diabetic rats; test: Serum free fatty acids (FFA) level in non-diabetic rats at 90 minutes; details: 100 mg/kg oral
Procedure: as §1, §2

[6] = system: serum FFA level in fasted rats; test: Time course of the serum FFA level in fasted rats (FIG. 1); details: 50 mg/kg oral; 0.5, 1, 2, 4 and 6 hours
Procedure: as §1
Further experiment was performed to clarify the effectiveness of the compound 4 on the serum FFA. Blood samples were taken at 0.5, 1, 2, 4 and 6 hours after an oral administration of 50 mg/kg to the fasted rats and the serum FFA levels were determined.

[7] = system: serum FFA level in non-diabetic rats; test: Serum FFA level in non-diabetic rats, oral administration for 10 days
Procedure: as §1
The compound suspended in 1% CMC was orally administered once a day for 10 days to healthy rats weighing 140-160g. The rats were fasted for 16-18 hours prior to the last administration. Blood samples were taken at 90 minutes after the last administration, and the blood glucose and serum FFA levels were determined, respectively.

[8] = system: blood glucose level in alloxan diabetic rats; test: Blood glucose level in alloxan diabetic rats loaded with much quantity of glucose
Procedure: as §1
Respective dose of the compound 4 (12.5 and 100 mg/kg) together with 2g/kg of glucose was orally administered to the alloxan diabetic rats.

[9] = system: blood glucose level in non-diabetic rats; test: Synergistic effect on the insulin activity in non-diabetic rats; details: insulin 0.1 unit/kg s.c.; compound 4 25 mg/kg oral
Procedure: The animals used for the pharmacological studies were male Sprague Dawley rats exept otherwise noted. 1. Hypoglycemic activity in non-diabetic rats (screening test)
The blood glucose levels in the non-diabetic rats were respectively determined after a subcutaneous injection of insulin (0.1 unit/kg), after an oral administration of the compound 4 (25 mg/kg), and after simultaneous administrations of insulin and the compund 4.

[10] = 2 hours, read-out: Reduction % of blood glucose from control after 2 hours
[11] = 5 hours, read-out: Reduction % of blood glucose from control after 5 hours

**Q.** How did the inhibition in vivo at 100 mg/kg [1, 10] turn out when `Cc1cc(C)n(C(=O)CNS(=O)(=O)c2ccc(Cl)cc2)n1` [Example 4, 1-(N-p-chlorobenzenesulfonyl-glycyl)-3,5-dimethylpyrazole] was run?
**A.** The inhibition in vivo at 100 mg/kg was 41.9%.

**Q.** What about the inhibition in vivo at 100 mg/kg [1, 11] of the same compound?
**A.** The inhibition in vivo at 100 mg/kg was 25.2%.

**Q.** And the “Blood glucose before administration” value ([2]; 100 mg/kg oral group, before administration (baseline), ± SE)?
**A.** The value was 352.1 ± 31.6 mg%.

**Q.** What about the “Blood glucose 2 hours” value ([2]; 100 mg/kg oral, 2 hours, ± SE) of the same compound?
**A.** The value was 267.6 ± 34.3 mg%.

**Q.** And the “Blood glucose 4 hours” value ([2]; 100 mg/kg oral, 4 hours, ± SE)?
**A.** Its value is 172.4 ± 35.1 mg%.

**Q.** What about the “Blood glucose 6 hours” value ([2]; 100 mg/kg oral, 6 hours, ± SE) of the same compound?
**A.** The value was 97.8 ± 13.4 mg%.

**Q.** What about the “Hypoglycemic effect in alloxan diabetic rats (in words)” value [2] of the same compound?
**A.** Its value is “could be observed, and it lasted so longer than that of phenformin (phenethylbiguanide) as to be potent even at 6 hours after the administration”.

**Q.** And the “Reduction of the blood glucose level (in words)” value ([3]; 0.125 mg/kg oral)?
**A.** Its value is “significantly reduced the blood glucose level even at low dose of 0.125 mg/kg”.

**Q.** And the “Reduction % from control” value ([3]; 0.125 mg/kg oral)?
**A.** The value was 51.9%.

**Q.** What about the Blood glucose ([3]; 0.125 mg/kg oral) of the same compound?
**A.** The Blood glucose was 37.9 ± 5.5 mg %.

**Q.** And the “Reduction % from control” value ([3]; 0.25 mg/kg oral)?
**A.** The value was 70.4%.

**Q.** And the Blood glucose ([3]; 0.25 mg/kg oral)?
**A.** The Blood glucose was 23.3 ± 4.0 mg %.

**Q.** What about the “Reduction % from control” value ([3]; 0.50 mg/kg oral) of the same compound?
**A.** Its value is 77.5%.

**Q.** And the Blood glucose ([3]; 0.50 mg/kg oral)?
**A.** Its Blood glucose is 17.8 ± 3.6 mg %.

**Q.** What about the “Reduction % from control” value ([3]; 1.0 mg/kg oral) of the same compound?
**A.** The value was 83.6%.

**Q.** And the Blood glucose ([3]; 1.0 mg/kg oral)?
**A.** The Blood glucose was 12.9 ± 1.4 mg %.

**Q.** What about the “Reduction % from control” value ([3]; 2.0 mg/kg oral) of the same compound?
**A.** Its value is 81.6%.

**Q.** What about the Blood glucose ([3]; 2.0 mg/kg oral) of the same compound?
**A.** Its Blood glucose is 14.5 ± 3.2 mg %.

**Q.** What about the “Reduction % from control” value ([3]; 4.0 mg/kg oral) of the same compound?
**A.** The value was 81.6%.

**Q.** And the Blood glucose ([3]; 4.0 mg/kg oral)?
**A.** The Blood glucose was 14.6 ± 2.9 mg %.

**Q.** And the Blood glucose level [4]?
**A.** Its Blood glucose level is 66.5 ± 6.0 mg/dL.

**Q.** And the “Effect on blood glucose level (in words)” value [4]?
**A.** Its value is “significantly lowered the blood glucose level”.

**Q.** What about the “Effect on serum FFA level (in words)” value [5] of the same compound?
**A.** Its value is “more effective than tolbutamide in lowering the serum FFA level”.

**Q.** What about the “Serum FFA level” value [5] of the same compound?
**A.** Its value is 17.4 ± 5.8 μ Eq/dl.

**Q.** And the “Effect on serum FFA level (in words, FIG. 1)” value [6]?
**A.** Its value is “markedly lowered the FFA level, and this effect could be observed at 6 hours after”.

**Q.** What about the “Serum FFA levels” value ([7]; 0.8 mg/kg oral once a day) of the same compound?
**A.** The value was 46.8 ± 5.1 μ Eq/dl.

**Q.** And the “Effect on serum FFA level (in words)” value ([7]; 0.8 mg/kg/day oral)?
**A.** Its value is “significantly lowered the serum FFA level even at a low dose (0.8mg/kg/day)”.

**Q.** What about the “Serum FFA levels” value ([7]; 3.1 mg/kg oral once a day) of the same compound?
**A.** The value was 35.9 ± 2.9 μ Eq/dl.

**Q.** And the “Serum FFA levels” value ([7]; 12.5 mg/kg oral once a day)?
**A.** Its value is 27.1 ± 1.5 μ Eq/dl.

**Q.** And the “Serum FFA levels” value ([7]; 50.0 mg/kg oral once a day)?
**A.** Its value is 27.9 ± 1.5 μ Eq/dl.

**Q.** What about the “Effect on blood glucose level (in words)” value ([8]; 12.5 and 100 mg/kg oral with 2g/kg of glucose, 3 hours) of the same compound?
**A.** The value was “significantly lowered at 3 hours after the administration (p<0.005)”.

**Q.** And the “Effect of combined use with insulin on blood glucose level” value [9]?
**A.** Its value is “more effective to reduce the blood glucose level than the individual administration”.

**Q.** How did the inhibition in vivo at 100 mg/kg [1, 10] turn out when `CCCCNC(=O)NS(=O)(=O)c1ccc(C)cc1` [Tolbutamide, reference compound] was run?
**A.** Its inhibition in vivo at 100 mg/kg is 54.1%.

**Q.** And the inhibition in vivo at 100 mg/kg [1, 11]?
**A.** Its inhibition in vivo at 100 mg/kg is 52.4%.

**Q.** What about the “Hypoglycemic effect in alloxan diabetic rats (in words)” value [2] of the same compound?
**A.** The value was “could not exert its hypoglycemic effect in the alloxan diabetic rats”.

**Q.** And the “Reduction % from control” value ([3]; 15 mg/kg oral)?
**A.** Its value is 42.0%.

**Q.** What about the Blood glucose ([3]; 15 mg/kg oral) of the same compound?
**A.** The Blood glucose was 45.7 ± 7.3 mg %.

**Q.** What about the “Reduction % from control” value ([3]; 30 mg/kg oral) of the same compound?
**A.** The value was 79.2%.

**Q.** And the Blood glucose ([3]; 30 mg/kg oral)?
**A.** Its Blood glucose is 16.4 ± 2.1 mg %.

**Q.** What about the “Reduction % from control” value ([3]; 60 mg/kg oral) of the same compound?
**A.** The value was 87.9%.

**Q.** What about the Blood glucose ([3]; 60 mg/kg oral) of the same compound?
**A.** Its Blood glucose is 9.5 ± 0.6 mg %.

**Q.** And the Blood glucose level [4]?
**A.** Its Blood glucose level is 57.7 ± 12.1 mg/dL.

**Q.** And the “Effect on blood glucose level (in words)” value [4]?
**A.** The value was “significantly lowered the blood glucose level”.

**Q.** And the “Serum FFA level” value [5]?
**A.** Its value is 30.8 ± 15.6 μ Eq/dl.

**Q.** And the “Effect on serum FFA level (in words, FIG. 1)” value [6]?
**A.** Its value is “only a slight suppression”.

**Q.** What about the “Serum FFA levels” value ([7]; 50.0 mg/kg oral once a day) of the same compound?
**A.** The value was 45.1 ± 2.7 μ Eq/dl.

**Q.** What about the “Hypoglycemic effect (in words)” value ([8]; alloxan diabetic rats, dose not stated) of the same compound?
**A.** Its value is “no hypoglycemic effect”.

**Q.** What about the “Effect of combined use with insulin on blood glucose level” value [9] of the same compound?
**A.** Its value is “not more effective than the administration of tolbutamide alone”.
